PMC5029940, “High Throughput Random Mutagenesis and Single Molecule Real Time Sequencing of the Muscle Nicotinic Acetylcholine Receptor” (PLoS ONE, 2016)

Assays:
Assay type in all cases: cell-based
[1] = target: T1, human muscle nicotinic acetylcholine receptor (nAChR), adult form, (α1)2β1δε (Homo sapiens, UniProt P02708+Q04844+Q07001); assay: Fluo-4 Ca2+ flux, FLIPR, inhibition of epibatidine response
T1 construct: gene CHRNA1; full-length untagged subunits; CMV-alpha1 plasmid plus EF1alpha beta1-delta-epsilon triple plasmid, transient in HEK293; heteropentamer; with Acetylcholine receptor subunit beta
Target sequence in this assay (P02708 21-457): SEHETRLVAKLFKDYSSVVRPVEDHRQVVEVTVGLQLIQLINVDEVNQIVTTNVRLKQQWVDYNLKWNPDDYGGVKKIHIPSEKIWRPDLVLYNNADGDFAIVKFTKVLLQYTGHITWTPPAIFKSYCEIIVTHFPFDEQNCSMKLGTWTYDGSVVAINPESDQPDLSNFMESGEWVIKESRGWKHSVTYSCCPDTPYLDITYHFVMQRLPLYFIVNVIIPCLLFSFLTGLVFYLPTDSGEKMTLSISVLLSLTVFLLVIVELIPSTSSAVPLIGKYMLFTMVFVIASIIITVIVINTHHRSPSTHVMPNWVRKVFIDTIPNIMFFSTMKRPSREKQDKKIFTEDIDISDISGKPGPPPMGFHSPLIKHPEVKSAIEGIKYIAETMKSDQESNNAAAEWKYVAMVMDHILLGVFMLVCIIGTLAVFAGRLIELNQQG
Target sequence in this assay (Q07001 22-517): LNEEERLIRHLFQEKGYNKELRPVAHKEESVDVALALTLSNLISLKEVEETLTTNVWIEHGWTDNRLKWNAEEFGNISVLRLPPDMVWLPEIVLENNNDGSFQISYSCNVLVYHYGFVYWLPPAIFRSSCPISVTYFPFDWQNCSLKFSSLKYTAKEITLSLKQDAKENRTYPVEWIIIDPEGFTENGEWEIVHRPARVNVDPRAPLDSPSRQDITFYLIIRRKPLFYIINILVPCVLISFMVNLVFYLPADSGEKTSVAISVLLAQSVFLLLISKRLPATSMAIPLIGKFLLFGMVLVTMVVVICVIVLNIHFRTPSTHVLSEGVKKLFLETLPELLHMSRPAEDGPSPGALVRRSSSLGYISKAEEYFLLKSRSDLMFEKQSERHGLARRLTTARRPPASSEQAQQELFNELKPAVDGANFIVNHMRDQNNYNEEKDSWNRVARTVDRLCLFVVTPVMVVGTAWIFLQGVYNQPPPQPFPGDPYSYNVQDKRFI
Target sequence in this assay (Q04844 21-493): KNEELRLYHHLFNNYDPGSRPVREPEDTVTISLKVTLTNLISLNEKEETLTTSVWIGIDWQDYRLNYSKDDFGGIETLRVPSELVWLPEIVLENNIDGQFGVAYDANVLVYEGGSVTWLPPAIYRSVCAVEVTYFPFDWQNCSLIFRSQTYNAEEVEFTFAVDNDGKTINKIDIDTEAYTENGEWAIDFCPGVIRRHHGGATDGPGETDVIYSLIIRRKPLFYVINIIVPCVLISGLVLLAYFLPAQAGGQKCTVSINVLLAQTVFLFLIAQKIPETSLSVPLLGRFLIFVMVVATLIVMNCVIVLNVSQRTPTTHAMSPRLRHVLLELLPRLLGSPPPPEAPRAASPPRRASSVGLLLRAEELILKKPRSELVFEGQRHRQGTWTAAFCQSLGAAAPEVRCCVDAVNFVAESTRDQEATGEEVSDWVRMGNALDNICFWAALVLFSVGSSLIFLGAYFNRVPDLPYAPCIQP
Target sequence in this assay (P11230 24-501 partner): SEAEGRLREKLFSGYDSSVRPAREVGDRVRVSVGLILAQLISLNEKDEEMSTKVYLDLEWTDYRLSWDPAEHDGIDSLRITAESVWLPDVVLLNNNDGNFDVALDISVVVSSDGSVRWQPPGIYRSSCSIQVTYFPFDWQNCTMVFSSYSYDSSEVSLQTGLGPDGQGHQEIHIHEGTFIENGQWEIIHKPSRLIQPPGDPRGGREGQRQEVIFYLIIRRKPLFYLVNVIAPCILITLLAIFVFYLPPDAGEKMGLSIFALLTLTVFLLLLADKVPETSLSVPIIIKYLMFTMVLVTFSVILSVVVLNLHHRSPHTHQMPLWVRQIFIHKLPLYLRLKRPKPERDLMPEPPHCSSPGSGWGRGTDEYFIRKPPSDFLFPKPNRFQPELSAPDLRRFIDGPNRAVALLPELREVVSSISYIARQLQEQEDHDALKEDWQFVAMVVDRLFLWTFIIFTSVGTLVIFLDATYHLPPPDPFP

[2] = target: T2, human muscle nicotinic acetylcholine receptor (nAChR), adult form, (α1)2β1δε (Homo sapiens, UniProt P02708+Q04844+Q07001, P02708:Y233N); assay: Fluo-4 Ca2+ flux, FLIPR
T2 construct: gene CHRNA1; full-length untagged subunits; CMV-alpha1 plasmid plus EF1alpha beta1-delta-epsilon triple plasmid, transient in HEK293; heteropentamer; with Acetylcholine receptor subunit beta
Source text: (§1) Fluo-4 Ca2+ flux, FLIPR on human muscle nicotinic acetylcholine receptor (nAChR), adult form, (α1)2β1δε

[3] = target: T3, human muscle nicotinic acetylcholine receptor (nAChR), adult form, (α1)2β1δε (Homo sapiens, UniProt P02708+Q04844+Q07001, P02708:Y233H); assay: Fluo-4 Ca2+ flux, FLIPR
T3 construct: gene CHRNA1; full-length untagged subunits; CMV-alpha1 plasmid plus EF1alpha beta1-delta-epsilon triple plasmid, transient in HEK293; heteropentamer; with Acetylcholine receptor subunit beta
Source text: as §1

[4] = target: T4, human muscle nicotinic acetylcholine receptor (nAChR), adult form, (α1)2β1δε (Homo sapiens, UniProt P02708+Q04844+Q07001, P02708:V275M); assay: Fluo-4 Ca2+ flux, FLIPR
T4 construct: gene CHRNA1; full-length untagged subunits; CMV-alpha1 plasmid plus EF1alpha beta1-delta-epsilon triple plasmid, transient in HEK293; heteropentamer; with Acetylcholine receptor subunit beta
Source text: as §1

[5] = target: T1, human muscle nicotinic acetylcholine receptor (nAChR), adult form, (α1)2β1δε; assay: Fluo-4 Ca2+ flux, FLIPR; conditions: read-out: α1-Wt / EC50
Source text: as §1

SMILES | IC50 [1] | EC50 [2] | EC50 [3] | EC50 [4] | EC50 [5]
COc1cc2c3cc1Oc1cc(ccc1O)C[C@@H]1c4c(cc(OC)c(O)c4Oc4ccc(cc4)C[C@@H]3N(C)CC2)CC[N+]1(C)C [tubocurarine] | 3200 ± 2400 nM | – | – | – | –
CN1CCC[C@H]1c1cccnc1 [Nicotine] | – | 1380 ± 96 nM | 1390 ± 117 nM | 557 ± 226 nM | 3650 ± 1040 nM
C[N+]1(C)CCN(c2ccccc2)CC1 [DMPP] | – | 705 ± 22 nM | 161 ± 10 nM | 67 ± 15 nM | 1630 ± 203 nM
O=c1cccc2n1C[C@@H]1CNC[C@H]2C1 [Cytisine] | – | 1180 ± 76 nM | 650 ± 93 nM | 592 ± 153 nM | 2350 ± 367 nM
